The subject of one data set is LDLR mRNA. As to the kind of experiment: LDLR mRNA real-time RT-PCR in HepG2 cells. The note with it: HepG2, 40 μM, 8 hrs. The data set is classed as cell-based, human. As to the method:
(§1) The Human hepatoma cell line HepG2 was obtained from the American Tissue Culture Collection (ATCC, USA). HepG2 cells were grown in Eagle's Minimum Essential Medium (GIBCO) supplemented with 10% fetal bovine serum (GIBCO), 1% non-essential amino acids (GIBCO) and 1% antibiotics (100 units/ml of penicillin and 100 μg/ml of streptomycin), and incubated at 37°C in a humidified atmosphere with 5% CO2.
(§2) The study compounds were diluted in culture medium prior to use.
(§3) Total cellular RNAs were isolated by the Ultraspec RNA lysis solution (Biotecxs Laboratory, Houston, TX) by following the vender's instruction. Total RNAs were reversely transcribed into cDNAs using the Reverse Transcription System (Promega, Madison, WI). Quantitative real time PCR was performed with these cDNAs as described previously, with β-Actin as an internal control. Normalized InsR or LDLR mRNA expression levels were plotted as fold of the untreated control. The primers used were described previously.
In general terms: Real-time PCR tracks product formation cycle by cycle.

Data set [1] can be described thus: BBR metabolites in rat liver after oral BBR, LC-MS/MS. The settings on record: 3 hrs after BBR oral administration 200 mg/kg; for Detection of metabolite in rat liver: LC-MS/MS; for Relative level of metabolite in rat liver: among M1-M4. The data set is classed as in vivo, Male Wistar rats. As to the method: Male Wistar rats (200-240 g, 8-week-old) purchased from Vital River Laboratories (Beijing, China) fasted overnight and were free access to water before drug administration. […] 2 g of the liver sample was washed with 5 mL normal saline, cut into small pieces and extracted with 3-fold volume acetonitrile. After vortexed for 3 min, the extract was centrifuged at 16000 g for 15 min at 4°C and the supernatant was diluted with 0.2% acetic acid. Ten microlitre dilution aliquot was injected into the LC-MS/MS system for analysis.
(§4) The flow-rate was 0.2 ml/min. […] The MS was operated in positive ESI mode. […] Data were analyzed by Xcalibur 1.2 software.

Another data set has as its system rCYP450 isoenzymes. As to the kind of experiment: Detection of BBR metabolites after incubation with rCYP450 isoenzymes. The settings on record: cell-free reaction, LC-MS/MS. The data set is classed as in vitro ADME, human. As to the method: (§5) The incubation was performed in duplicates.
as §4

For another data set, the system named is AMPK. As to the kind of experiment: AMPK-alpha phosphorylation immunoblot in HepG2 cells. The note with it: HepG2, 20 μM, 24 hrs. The data set is classed as cell-based, human. As to the method:
as §1, §2
Sample cells were rinsed with phosphate-buffered saline and lysed in SDS-PAGE loading buffer. Cell lysates were subjected to 8% SDS-PAGE for protein separation, and protein bands were transferred onto polyvinylidene difluoride membranes (Millipore). The amount of protein and extent of phosphorylation were estimated using the following primary rabbit antibodies, anti-phospho-AMPK-α-Thr-172 antibody, anti-AMPK-α antibody as well as anti-β-actin antibody (Cell signaling Technology, USA). The secondary antibody was peroxidase-conjugated goat anti-rabbit antibody (Cell signaling Technology, USA).
(In general: In western blotting, separated proteins are transferred to a membrane and probed.)

For a further data set, the system named is human liver microsomes. As to the kind of experiment: BBR metabolism in human liver microsomes (HLMs). The data set is classed as in vitro ADME. The settings on record: cell-free reaction, LC-MS/MS. The method, then: Incubation conditions were optimized to ensure the linearity with respect to the microsomal protein concentration and incubation time. […] After incubation of the mixture in a 37°C water bath with opening to the air, the reaction lasted for 30 min and was terminated by addition of 800 μl cold acetonitrile. Internal standard (40 μg/ml ampicillin, dissolved in acetonitrile) was added into the mixture, and then centrifuged at 16000 g for 15 min at 4°C. The supernatant was aspirated, followed by dilution in 0.2% acetic acid. 10 μl of the aliquot was injected into the LC-MS/MS system for analysis. Control samples were incubated without NADPH. The incubation was performed in duplicates.
as §4
In general terms: Liver microsomes are vesicles of endoplasmic reticulum, rich in cytochrome P450 enzymes.

The target of a further data set is T1, CYP2C9 (Homo sapiens, UniProt P11712).
T1 construct: purchased BD Gentest; host or cells: baculovirus-insect cells
T1 sequence (P11712 whole entry): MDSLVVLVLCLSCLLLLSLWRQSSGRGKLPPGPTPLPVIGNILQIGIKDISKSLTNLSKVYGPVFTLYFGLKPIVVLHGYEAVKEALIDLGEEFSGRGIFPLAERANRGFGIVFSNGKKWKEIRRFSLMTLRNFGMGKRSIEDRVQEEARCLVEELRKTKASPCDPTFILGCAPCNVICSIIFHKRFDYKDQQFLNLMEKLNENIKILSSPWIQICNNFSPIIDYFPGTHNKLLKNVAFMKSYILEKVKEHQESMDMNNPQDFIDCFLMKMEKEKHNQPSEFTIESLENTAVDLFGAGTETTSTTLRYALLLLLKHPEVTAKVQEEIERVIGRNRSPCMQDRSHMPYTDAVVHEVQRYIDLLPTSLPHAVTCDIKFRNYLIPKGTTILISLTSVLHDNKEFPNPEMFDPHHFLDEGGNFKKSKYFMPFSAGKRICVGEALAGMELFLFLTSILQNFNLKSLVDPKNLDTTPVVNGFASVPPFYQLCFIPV
As to the kind of experiment: BBR metabolism in recombinant human CYP450 isoenzyme. The data set is classed as in vitro ADME. The settings on record: BBR 20 μM, 50 pmol/ml rCYP450, 30 min. As to the method: The experiment was performed with the condition described in the method using HLMs for transformation. […] Control microsome prepared from insect cells, which were infected with wild-type baculovirus, severed as a negative control. The incubation was performed in duplicates.
Sample analysis was performed using an LC-MS/MS system (Thermo-Finnigan, San Jose, CA, USA), which consisted of a Surveyor LC pump with an on-line degasser, a Surveyor autosampler and a TSQ Quantum triple-quadrupole mass spectrometer equipped with an ESI probe. A Waters XTerra® MS C18 (2.1 ×50 mm, 3.5 μm) column (Milford, MA, USA) was used for separation at 25°C. The mobile phase consisted of 0.2% acetic acid in water (A) and 100% acetonitrile (B). The flow-rate was 0.2 ml/min. […] The column was allowed to equilibrate for 10 min after each run. Only the data from 2 min to 15 min was acquired by MS. The MS was operated in positive ESI mode. Nitrogen was used as both the sheath and auxiliary gas at a pressure of 35 and 10 arbitrary units, respectively. The spray voltage was set at 4.0 kV and the capillary temperature was at 270°C. […] The most abundant product ion of each chemical was chosen for selected reaction monitoring (SRM). Data were analyzed by Xcalibur 1.2 software.

A further data set concerns LDLR. As to the kind of experiment: Double immune-staining and flow cytometry, cell-surface protein expression in HepG2. The data set is classed as cell-based, human. The settings on record: HepG2, 8 hrs; BBR 27 μM, simvastatin 1 μM, rosiglitazone 10 μM. As to the method:
(§6) The Human hepatoma cell line HepG2 was obtained from the American Tissue Culture Collection (ATCC, USA). […] The study compounds were diluted in culture medium prior to use. […] The corresponding isotype-matched, nonspecific mouse and rabbit IgGs were used respectively as controls for nonspecific staining. After washing in PBS, cells were stained with a fluorescein isothiocyanate (FITC)-conjugated goat anti-mouse IgG (green color, Santa Cruz Biotechnology), as well as a tetramethyl rhodamine isothiocyanate (TRITC)-conjugated goat anti-rabbit IgG (red color, Santa Cruz Biotechnology). The fluorescence intensities were analyzed in a FACS (FACSort, Becton Dickinson).

Another data set has as its system InsR. The description is as above. The data set is classed as cell-based, human. The settings on record: HepG2, 8 hrs; BBR 27 μM, simvastatin 1 μM, rosiglitazone 10 μM. As to the method: as §6
For data set [2] the following is noted: oral administration, cited from earlier work.
For another data set, the system named is InsR mRNA. As to the kind of experiment: InsR mRNA real-time RT-PCR in HepG2 cells. The data set is classed as cell-based, human. The note with it: HepG2, 20 μM, 8 hrs, fold of untreated control. The method, then:
as §1, §2, §3

The conditions of data set [3]: ref [34]; cited from earlier work.
A further data set deals with HLMs. As to the kind of experiment: Chemical inhibition assays of BBR metabolism in HLMs. The data set is classed as in vitro ADME, human. The note with it: BBR 15 μM, inhibitor 5 μM, 30 min, control without inhibitor = 100%. As to the method:
as §5
The incubations were performed in duplicates.
as §4

The text below walks through data of paper PMC3103436 (Journal of Translational Medicine, 2011).

With `COc1cc2c(cc1O)CC[n+]1cc3c(OC)c(OC)ccc3cc1-2` [M4, jatrorrhizine], the “Effect on LDLR mRNA expression” value with LDLR mRNA was “without effect”. The “Detection of metabolite in rat liver” value in data set [1] is on record as “detectable”. Besides, the “Detection of metabolite after incubating BBR with rCYP450s” value (“Detection of metabolite … with rCYP450s” for short) in the data set on rCYP450 isoenzymes was “not detectable”. The “AMPK activation (AMPK-alpha phosphorylation)” value (from here on “AMPK activation”) in the data set with AMPK is reported as “not significant”. In addition, the “Detection of metabolite after incubating BBR with HLMs” value (from here on “Detection of metabolite … with HLMs”) in the data set on human liver microsomes is recorded as “not found”.
For the compound `COc1ccc2cc3[n+](cc2c1OC)CCc1cc2c(cc1-3)OCO2` [BBR, Berberine], at CYP2C9, the “Transformation of BBR into metabolites by CYP2C9” value is reported as “very weak effect”. The “Effect on cell-surface LDLR protein expression” value in the data set with LDLR is “up-regulatory effect”. For the same compound, in the data set with InsR, the “Effect on cell-surface InsR protein expression” value is “up-regulatory effect”. For the same compound, the “Effect on LDLR mRNA expression” value in the data set with LDLR mRNA is “strongest up-regulator”. Moreover, the “Reduction of blood cholesterol, triglyceride and glucose” value in [2] (patients with hyperlipidemia and type 2 diabetes, ref [2],[3],[5]-[7]) is “significant reduction”. In data set [2] (patients, ref [2],[5]), the “Side-effects on liver, kidney and muscle” value is “no side-effects”. Moreover, in the data set on InsR mRNA, the “Increase of InsR mRNA level” value is on record as “over 2 folds”. Besides, in the data set on AMPK, the “AMPK activation” value is listed as “most active compound”. The “Share of BBR entering into blood stream (absorption in human gut)” value in data set [3] is listed as “less than 10%”.
As for `CN(CCOc1ccc(CC2SC(=O)NC2=O)cc1)c1ccccn1` (stereo not drawn) [rosiglitazone], the “Effect on cell-surface LDLR protein expression” value in the data set on LDLR is given as “effect on neither LDLR nor InsR”. For the same compound, the “Effect on cell-surface InsR protein expression” value in the data set on InsR was “effect on neither LDLR nor InsR”.
Turning to `CC(=O)N1CCN(c2ccc(OCC3COC(Cn4ccnc4)(c4ccc(Cl)cc4Cl)O3)cc2)CC1` (stereo not drawn) [KET, ketoconazole], the “Decrease of M2 formation” value in the data set on HLMs is reported as “not”.
For the compound `CCC(C)(C)C(=O)O[C@H]1C[C@@H](C)C=C2C=C[C@H](C)[C@H](CC[C@@H]3C[C@@H](O)CC(=O)O3)[C@H]21` [simvastatin], in the data set on LDLR, the “Effect on cell-surface LDLR protein expression” value is reported as “increased LDLR expression only”. The “Effect on cell-surface InsR protein expression” value in the data set with InsR is on record as “not InsR”.
In the case of `COc1ccc2cc3[n+](cc2c1OC)CCc1cc(O)c(O)cc1-3` [M3, demethyleneberberine], the “Effect on LDLR mRNA expression” value with LDLR mRNA is listed as “without effect”. Moreover, in [1], the “Detection of metabolite in rat liver” value is listed as “detectable”. In addition, the “Detection of metabolite … with rCYP450s” value in the data set with rCYP450 isoenzymes is reported as “detectable”. Further, the “AMPK activation” value in the data set with AMPK is given as “not significant”. The “Detection of metabolite … with HLMs” value with human liver microsomes is “detectable”.
On to `O=c1cc(-c2ccccc2)oc2c1ccc1ccccc12` [ANF, α-naphthoflavone], for which the “Decrease of M2 formation” value in the data set with HLMs is reported as “about 40%”.
Take `COc1ccc2cc3[n+](cc2c1O)CCc1cc2c(cc1-3)OCO2` [M1, berberrubine]: in the data set on LDLR mRNA, the “Effect on LDLR mRNA expression” value was “remained to be active” and the “LDLR mRNA up-regulating activity as percent of that of BBR” value was 35%. Further, in data set [1], the “Detection of metabolite in rat liver” value is listed as “detectable” and the “Relative level of metabolite in rat liver” value is reported as “lowest”. For the same compound, in the data set on rCYP450 isoenzymes, the “Detection of metabolite … with rCYP450s” value is “not detectable”. Besides, in the data set on AMPK, the “AMPK activation” value was “increased the activity of AMPK but with a less potency”. Also, in the data set with human liver microsomes, the “Detection of metabolite … with HLMs” value is listed as “not found”.
As to `COc1c(O)ccc2cc3[n+](cc12)CCc1cc2c(cc1-3)OCO2` [M2, thalifendine], in the data set with LDLR mRNA, the “Effect on LDLR mRNA expression” value is “remained to be active” and the “LDLR mRNA up-regulating activity as percent of that of BBR” value worked out at 26%. Besides, in [1], the “Detection of metabolite in rat liver” value was “detectable” and the “Relative level of metabolite in rat liver” value is given as “highest level”. For the same compound, the “Detection of metabolite … with rCYP450s” value in the data set on rCYP450 isoenzymes is recorded as “detectable”. Also, the “AMPK activation” value in the data set on AMPK is reported as “increased the activity of AMPK but with a less potency”. In addition, the “Detection of metabolite … with HLMs” value with human liver microsomes was “detectable”.
